Data published in PMC12301332, “Biased antagonism of a series of bicyclic CXCR2 intracellular allosteric modulators” (Frontiers in Pharmacology, 2025).
Read-outs that look alike come from different tables or passages of the source.

Tests used:
[1] = target: T1, CXCR2 (Homo sapiens, UniProt P25025); assay: NanoBRET β-arrestin1 recruitment inhibition assay (NanoLux) in HEK293A cells; type: cell-based; conditions: for Imax βarr1 (maximum observed inhibitory effect): normalized to Imax of navarixin = 100%
T1 construct: expressed in transfected cells
T1 sequence (P25025 1-360): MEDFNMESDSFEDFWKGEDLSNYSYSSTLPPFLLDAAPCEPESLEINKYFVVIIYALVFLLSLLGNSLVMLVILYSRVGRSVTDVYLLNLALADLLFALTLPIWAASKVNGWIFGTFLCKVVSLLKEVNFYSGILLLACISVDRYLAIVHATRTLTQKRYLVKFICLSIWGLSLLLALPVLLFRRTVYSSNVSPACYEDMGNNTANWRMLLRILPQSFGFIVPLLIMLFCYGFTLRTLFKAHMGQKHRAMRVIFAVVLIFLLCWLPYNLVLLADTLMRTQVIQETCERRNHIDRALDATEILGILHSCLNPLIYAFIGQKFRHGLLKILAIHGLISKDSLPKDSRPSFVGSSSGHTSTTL
Description: Cells were trypsinized and resuspended at 3 × 10^5 cell/mL in the growth medium, whereafter they were incubated for 2 hours at RT. Cells were transfected in suspension using FuGENE® HD Transfection Reagent at a 3:1 reagent to DNA ratio in Opti-MEMTM I Reduced-Serum Medium, with the final DNA concentration of 1 μg/μL. The transfection mixture was incubated for 10 min at RT before adding it to the cell suspension. Transfected cells were seeded at 3.0 × 10^4 cells/well in a white, clear, flat-bottom 96-well plate coated with 100 μg/mL poly-D-lysin ([…], Sigma Aldrich) and incubated for 48 h at 37°C and 5% CO2. HEK293A cells were transiently co-transfected with plasmids encoding β-arrestin1 protein tagged with NLuc (donor) and CXCR2 protein tagged with mNeonGreen (mNG) acceptor in a 1:10 donor to acceptor ratio, as described previously ([Luís et al., 2022]). All subsequent steps are identical to those in “NanoBRET-based G protein activation inhibition assay,” which are described above. Measurements were acquired using a 440- to 480-nm donor emission filter (#0200-6179, Molecular Devices) and a 515- to 575-nm acceptor emission filter (#0200-6203, Molecular Devices) BRET ratios were extracted from ScreenWorks software (Molecular Devices) and represent the ratio between the acceptor emission of […]2 or mNG (G protein or β-arrestin recruitment, respectively) and NLuc donor emission. The basal BRET ratio was defined as the average BRET ratio of the five consecutive readings preceding ligand addition. Changes in BRET values post ligand administration (ΔBRET) were calculated for each well as a percentage difference to the previously defined basal BRET ratio. Average ΔBRET values were baseline corrected by subtracting the average negative control BRET ratio (unstimulated condition). […] AUCs were normalized to the positive control (stimulated condition); whereafter, dose-response curves were fitted to log (inhibitor) vs response (three parameters) in GraphPad 10.2.0 (GraphPad Software). […] Calculation 1: calculation of the BRET signal. • 1. […] NC correctedΔBRET=Δ[…]. • 4. a. Neg AUC of NC correctedΔBRET=Gα activation read out. b. Pos AUC of NC correctedΔBRET=β-arrestin recruitment.

[2] = target: T1, CXCR2; assay: Bias analysis (bias plot, bias index) of β-arrestin1 recruitment inhibition versus Gαi1 activation inhibition, navarixin as reference; type: cell-based; conditions: for bias index vs navarixin, statistical significance (H1): one-sample T-test; for differences in bias index between the various CXCR2 ligands (H2): one-way ANOVA followed by Tukey's test
Description: For signaling bias calculations, constraints were set to bottom values equal to zero. The calculated top values generated by nonlinear fit log (inhibitor) vs response (three parameters) in GraphPad 10.2.1 were taken as Imax. […] The bias index values were calculated, as is shown in calculation 2. Briefly, log(Imax/IC50) was calculated. […] Finally, the bias index was calculated by subtracting the ∆log (Imax/IC50) of the tested compound from the stated reference pathway from that of the pathway of interest. […] The statistical significance of H1 was evaluated using a one-sample T-test with Benjamini-Hochberg correction applied for multiple comparisons, whereas H2 was assessed using a one-way ANOVA followed by Tukey’s test.
Bias index=∆LogImax/IC50P1:β−arr1−∆LogImax/IC50P2:Gai1 .
Bias plots are equimolar comparisons between the two pathways of interest.

[3] = CXCL1 at EC80, mean, n = 3, read-out: IC50 βarr1
[4] = CXCL2 at EC80, mean, n = 3, read-out: IC50 βarr1
[5] = CXCL3 at EC80, mean, n = 3, read-out: IC50 βarr1
[6] = CXCL5 at EC80, mean, n = 3, read-out: IC50 βarr1
[7] = CXCL6 at EC80, mean, n = 3, read-out: IC50 βarr1
[8] = CXCL7 at EC80, mean, n = 3, read-out: IC50 βarr1
[9] = CXCL8 at EC80, mean, n = 3, read-out: IC50 βarr1

Row | SMILES | IC50 [1, 3] | Imax βarr1 (maximum observed inhibitory effect) ([1]; CXCL1 at EC80, n = 3) | IC50 [1, 4] | Imax βarr1 (maximum observed inhibitory effect) ([1]; CXCL2 at EC80, n = 3) | IC50 [1, 5] | Imax βarr1 (maximum observed inhibitory effect) ([1]; CXCL3 at EC80, n = 3) | IC50 [1, 6] | Imax βarr1 (maximum observed inhibitory effect) ([1]; CXCL5 at EC80, n = 3) | IC50 [1, 7] | Imax βarr1 (maximum observed inhibitory effect) ([1]; CXCL6 at EC80, n = 3) | IC50 [1, 8] | Imax βarr1 (maximum observed inhibitory effect) ([1]; CXCL7 at EC80, n = 3) | IC50 [1, 9] | Imax βarr1 (maximum observed inhibitory effect) ([1]; CXCL8 at EC80, n = 3) | IC50 ([1]; range across ELR+ chemokines, read-out: IC50 β-arrestin1 recruitment inhibition) | bias index vs navarixin, statistical significance (H1) ([2]; CXCL1-, CXCL2-, CXCL5-, CXCL6-, and CXCL8-induced responses) | bias index vs navarixin, statistical significance (H1) ([2]; CXCL1-induced responses) | bias index vs navarixin, statistical significance (H1) ([2]; CXCL2, CXCL5, and CXCL6 responses) | differences in bias index between the various CXCR2 ligands (H2) [2]
1 | CC(CO)Nc1nc(SCc2cccc(F)c2F)nc2oncc12 (stereo not drawn) [MVH-24] | 170 ± 60 nM | 100% | 80 ± 40 nM | 100% | 140 ± 50 nM | 99.42 ± 0.85% | 90 ± 30 nM | 100% | 70 ± 20 nM | 100% | 30 ± 10 nM | 100% | 150 ± 40 nM | 100% | 30 to 170 nM | nonsignificantly different from navarixin |  |  | 
2 | CC(CO)Nc1nc(SCc2cccc(F)c2F)nc2cnccc12 (stereo not drawn) [MVH-3] | 980 ± 180 nM | 100% | 580 ± 170 nM | 100% | 1590 ± 430 nM | 100% | 840 ± 160 nM | 100% | 700 ± 170 nM | 100% | 160 ± 50 nM | 95.75 ± 3.49% | 1340 ± 450 nM | 90.8 ± 4.62% |  |  | highly significant | nonsignificantly different from navarixin | statistically significant
3 | CC(CCO)Nc1nc(SCc2cccc(F)c2F)nc2[nH]nnc12 (stereo not drawn) [MVH-33] | 1460 ± 580 nM | 98.15 ± 4.28% | 660 ± 210 nM | 92.98 ± 2.58% | 1530 ± 260 nM | 96.91 ± 2.10% | 1120 ± 260 nM | 100% | 790 ± 370 nM | 93.68 ± 7.03% | 340 ± 130 nM | 100% | 1510 ± 1010 nM | 100% |  |  |  |  | statistically significant
